Laboratory results: PMC11213733, “Computational approaches identify a transcriptomic fingerprint of drug-induced structural cardiotoxicity” (Cell Biology and Toxicology, 2024)
Read-outs that look alike come from different tables or passages of the source.

Legend:
[1] = test system: cardiac microtissues; experiment: ATP depletion (CellTiter Glo Luminescent Cell Viability Assay) in cardiac microtissues; assay type: cell-based, human; details: the concentration is the IC30 of ATP depletion, or cell death caused
Protocol: Cellular ATP concentrations were also assessed using the CellTiter Glo® Luminescent Cell Viability Assay as per the manufacturer’s instructions (Promega).

[2] = ref FDA label, cited from earlier work
[3] = test system: cardiac microtissues; experiment: Transcriptomic profiling (mRNA-seq) and DESeq2 differential gene expression analysis in cardiac microtissues; details: absolute log2(Fold-Change) > 1, FDR p ≤ 0.05
[4] = test system: cardiac microtissues; experiment: Targeted qRT-PCR of ATAD3C, CDH13, IL6, PTX3, SLC7A5, UCHL1 in cardiac microtissues; assay type: cell-based, human; details: Sorafenib 3.74 µM, Sunitinib 3.53 µM, Dasatinib 10.8 µM; for activity at 3.53 µM: Homo sapiens, read-out: % of control
Protocol: The experiment was performed with three technical replicates across 1-2 independent replicates.

[5] = test system: cardiac microtissues; experiment: Ingenuity Pathway Analysis over-representation of differentially expressed genes (activation Z-score); assay type: cell-based, human; details: 48hr high; Group 2

In the case of `CCN(CC)CCNC(=O)c1c(C)[nH]c(/C=C2\C(=O)Nc3ccc(F)cc32)c1C` [Sunitinib Malate], the “Transcriptomic high concentration (µM) = IC30 of ATP depletion” value [1] is given as 3.53 µM, the “Structural cardiotoxin?” value ([2]; FDA label references heart failure or a decrease in left ventricular ejection fraction) is given as “Y” and the “Functional cardiotoxin?” value ([2]; compound annotation) is given as “Y”. For the same compound, the “number of significant differentially expressed genes, 6hr high” value ([3]; 6 hr, high concentration) was 10, the “number of significant differentially expressed genes, 6hr low” value ([3]; 6 hr, low concentration) was 0 and the “number of significant differentially expressed genes, 48hr high” value ([3]; 48 hr, high concentration) was 861. The “number of significant differentially expressed genes, 48hr low” value ([3]; 48 hr, low concentration) was 399, the “number of significant differentially expressed genes, 72hr high” value ([3]; 72 hr, high concentration) was 152 and the “number of significant differentially expressed genes, 72hr low” value ([3]; 72 hr, low concentration) was 71. It also gave an activity at 3.53 µM ([4]; gene ATAD3C, Run 1) of 85.2%, an activity at 3.53 µM ([4]; gene CDH13, Run 1) of 81.7% and an activity at 3.53 µM ([4]; gene CDH13, Run 2) of 32.5%. The activity at 3.53 µM ([4]; gene IL6, Run 1) was 18.3%, the activity at 3.53 µM ([4]; gene IL6, Run 2) was 3.18% and the activity at 3.53 µM ([4]; gene PTX3, Run 1) was 46.8%. It also gave an activity at 3.53 µM ([4]; gene PTX3, Run 2) of 18.6%, an activity at 3.53 µM ([4]; gene SLC7A5, Run 1) of 87.2% and an activity at 3.53 µM ([4]; gene SLC7A5, Run 2) of 7.07%. For the same compound, the activity at 3.53 µM ([4]; gene UCHL1, Run 1) was 59.4%, the activity at 3.53 µM ([4]; gene UCHL1, Run 2) was 18.6% and the “2^-ΔΔCt of Individual reps, Treated 1” value ([4]; gene ATAD3C, Run 1) was 0.6771. The “2^-ΔΔCt of Individual reps, Treated 2” value ([4]; gene ATAD3C, Run 1) was 0.9498, the “2^-ΔΔCt of Individual reps, Treated 3” value ([4]; gene ATAD3C, Run 1) was 0.9298 and the “Average 2^-ΔΔCt, Treated” value ([4]; gene ATAD3C, Run 1) was 0.8522. The “2^-ΔΔCt of Individual reps, Treated 1” value ([4]; gene CDH13, Run 1) was 0.8001, the “2^-ΔΔCt of Individual reps, Treated 2” value ([4]; gene CDH13, Run 1) was 0.8203 and the “2^-ΔΔCt of Individual reps, Treated 3” value ([4]; gene CDH13, Run 1) was 0.8552. For the same compound, the “Average 2^-ΔΔCt, Treated” value ([4]; gene CDH13, Run 1) was 0.8252, the “2^-ΔΔCt of Individual reps, Treated 1” value ([4]; gene CDH13, Run 2) was 0.3506 and the “2^-ΔΔCt of Individual reps, Treated 2” value ([4]; gene CDH13, Run 2) was 0.356. For the same compound, the “2^-ΔΔCt of Individual reps, Treated 3” value ([4]; gene CDH13, Run 2) was 0.3542, the “Average 2^-ΔΔCt, Treated” value ([4]; gene CDH13, Run 2) was 0.3536 and the “2^-ΔΔCt of Individual reps, Treated 1” value ([4]; gene IL6, Run 1) was 0.1962. The “2^-ΔΔCt of Individual reps, Treated 2” value ([4]; gene IL6, Run 1) was 0.1722, the “2^-ΔΔCt of Individual reps, Treated 3” value ([4]; gene IL6, Run 1) was 0.1837 and the “Average 2^-ΔΔCt, Treated” value ([4]; gene IL6, Run 1) was 0.184. For the same compound, the “2^-ΔΔCt of Individual reps, Treated 1” value ([4]; gene IL6, Run 2) was 0.1296, the “2^-ΔΔCt of Individual reps, Treated 2” value ([4]; gene IL6, Run 2) was 0.008 and the “2^-ΔΔCt of Individual reps, Treated 3” value ([4]; gene IL6, Run 2) was 0.00254. For the same compound, the “Average 2^-ΔΔCt, Treated” value ([4]; gene IL6, Run 2) was 0.04671, the “2^-ΔΔCt of Individual reps, Treated 1” value ([4]; gene PTX3, Run 1) was 0.5127 and the “2^-ΔΔCt of Individual reps, Treated 2” value ([4]; gene PTX3, Run 1) was 0.4851. For the same compound, the “2^-ΔΔCt of Individual reps, Treated 3” value ([4]; gene PTX3, Run 1) was 0.4283, the “Average 2^-ΔΔCt, Treated” value ([4]; gene PTX3, Run 1) was 0.4754 and the “2^-ΔΔCt of Individual reps, Treated 1” value ([4]; gene PTX3, Run 2) was 0.364. The “2^-ΔΔCt of Individual reps, Treated 2” value ([4]; gene PTX3, Run 2) was 0.159, the “2^-ΔΔCt of Individual reps, Treated 3” value ([4]; gene PTX3, Run 2) was 0.09578 and the “Average 2^-ΔΔCt, Treated” value ([4]; gene PTX3, Run 2) was 0.2063. The “2^-ΔΔCt of Individual reps, Treated 1” value ([4]; gene SLC7A5, Run 1) was 0.9373, the “2^-ΔΔCt of Individual reps, Treated 2” value ([4]; gene SLC7A5, Run 1) was 0.8504 and the “2^-ΔΔCt of Individual reps, Treated 3” value ([4]; gene SLC7A5, Run 1) was 0.8586. For the same compound, the “Average 2^-ΔΔCt, Treated” value ([4]; gene SLC7A5, Run 1) was 0.8821, the “2^-ΔΔCt of Individual reps, Treated 1” value ([4]; gene SLC7A5, Run 2) was 0.1881 and the “2^-ΔΔCt of Individual reps, Treated 2” value ([4]; gene SLC7A5, Run 2) was 0.06312. The “2^-ΔΔCt of Individual reps, Treated 3” value ([4]; gene SLC7A5, Run 2) was 0.06588, the “Average 2^-ΔΔCt, Treated” value ([4]; gene SLC7A5, Run 2) was 0.1057 and the “2^-ΔΔCt of Individual reps, Treated 1” value ([4]; gene UCHL1, Run 1) was 0.6206. The “2^-ΔΔCt of Individual reps, Treated 2” value ([4]; gene UCHL1, Run 1) was 0.6021, the “2^-ΔΔCt of Individual reps, Treated 3” value ([4]; gene UCHL1, Run 1) was 0.5702 and the “Average 2^-ΔΔCt, Treated” value ([4]; gene UCHL1, Run 1) was 0.5976. The “2^-ΔΔCt of Individual reps, Treated 1” value ([4]; gene UCHL1, Run 2) was 0.3214, the “2^-ΔΔCt of Individual reps, Treated 2” value ([4]; gene UCHL1, Run 2) was 0.1175 and the “2^-ΔΔCt of Individual reps, Treated 3” value ([4]; gene UCHL1, Run 2) was 0.1882. For the same compound, the “Average 2^-ΔΔCt, Treated” value ([4]; gene UCHL1, Run 2) was 0.209, the “activation Z-score: Actin Cytoskeleton Signaling” value [5] was -3.317 and the “activation Z-score: Actin Nucleation by ARP-WASP Complex” value [5] was -2.646. For the same compound, the “activation Z-score: Acute Phase Response Signaling” value [5] was -2.84, the “activation Z-score: Adrenomedullin signaling pathway” value [5] was -2.53 and the “activation Z-score: Apelin Cardiac Fibroblast Signaling Pathway” value [5] was 2.236. For the same compound, the “activation Z-score: Apelin Liver Signaling Pathway” value [5] was -2.449, the “activation Z-score: Aryl Hydrocarbon Receptor Signaling” value [5] was -0.632 and the “activation Z-score: Breast Cancer Regulation by Stathmin1” value [5] was -3. For the same compound, the “activation Z-score: CD40 Signaling” value [5] was -2, the “activation Z-score: CLEAR Signaling Pathway” value [5] was -0.5 and the “activation Z-score: Cardiac Hypertrophy Signaling (Enhanced)” value [5] was -3.53. For the same compound, the “activation Z-score: Cell Cycle: G2/M DNA Damage Checkpoint Regulation” value [5] was -3, the “activation Z-score: Colorectal Cancer Metastasis Signaling” value [5] was -3.578 and the “activation Z-score: Cyclins and Cell Cycle Regulation” value [5] was 2.333. For the same compound, the “activation Z-score: ERK5 Signaling” value [5] was -2, the “activation Z-score: Endothelin-1 Signaling” value [5] was -2.496 and the “activation Z-score: G-Protein Coupled Receptor Signaling” value [5] was -3.212. For the same compound, the “activation Z-score: GP6 Signaling Pathway” value [5] was -4.123, the “activation Z-score: Glioblastoma Multiforme Signaling” value [5] was -2.333 and the “activation Z-score: HGF Signaling” value [5] was -2.333. The “activation Z-score: HIF1Î± Signaling” value [5] was -3.464, the “activation Z-score: HMGB1 Signaling” value [5] was -3.357 and the “activation Z-score: Hepatic Fibrosis Signaling Pathway” value [5] was -4.768. For the same compound, the “activation Z-score: IL-6 Signaling” value [5] was -2.309, the “activation Z-score: IL-8 Signaling” value [5] was -3.051 and the “activation Z-score: IL-13 Signaling Pathway” value [5] was -2.496. The “activation Z-score: IL-15 Production” value [5] was -2.449, the “activation Z-score: ILK Signaling” value [5] was -3.357 and the “activation Z-score: Immunogenic Cell Death Signaling Pathway” value [5] was -2.646. The “activation Z-score: Inhibition of Angiogenesis by TSP1” value [5] was -2, the “activation Z-score: Integrin Signaling” value [5] was -3.606 and the “activation Z-score: Intrinsic Prothrombin Activation Pathway” value [5] was -2. For the same compound, the “activation Z-score: Kinetochore Metaphase Signaling Pathway” value [5] was 3.266, the “activation Z-score: LXR/RXR Activation” value [5] was 0.905 and the “activation Z-score: Leukocyte Extravasation Signaling” value [5] was -2.065. For the same compound, the “activation Z-score: MIF Regulation of Innate Immunity” value [5] was -2, the “activation Z-score: MYC Mediated Apoptosis Signaling” value [5] was -1.633 and the “activation Z-score: Macrophage Alternative Activation Signaling Pathway” value [5] was -2.558. For the same compound, the “activation Z-score: Oncostatin M Signaling” value [5] was -2.236, the “activation Z-score: Osteoarthritis Pathway” value [5] was -2.711 and the “activation Z-score: Oxytocin Signaling Pathway” value [5] was -2.324. The “activation Z-score: PAK Signaling” value [5] was -2.236, the “activation Z-score: PPAR Signaling” value [5] was 2.646 and the “activation Z-score: Pancreatic Adenocarcinoma Signaling” value [5] was -2.121. For the same compound, the “activation Z-score: Paxillin Signaling” value [5] was -2, the “activation Z-score: Production of Nitric Oxide and Reactive Oxygen Species in Macrophages” value [5] was -3.051 and the “activation Z-score: Prostanoid Biosynthesis” value [5] was -2. The “activation Z-score: Pulmonary Fibrosis Idiopathic Signaling Pathway” value [5] was -5.692, the “activation Z-score: Pulmonary Healing Signaling Pathway” value [5] was -2.449 and the “activation Z-score: Pyridoxal 5'-phosphate Salvage Pathway” value [5] was 1.342. The “activation Z-score: RAC Signaling” value [5] was -1.89, the “activation Z-score: RHOGDI Signaling” value [5] was 3.606 and the “activation Z-score: Regulation Of The Epithelial Mesenchymal Transition By Growth Factors Pathway” value [5] was -4.243. For the same compound, the “activation Z-score: Regulation of Cellular Mechanics by Calpain Protease” value [5] was -2.236, the “activation Z-score: Regulation of eIF4 and p70S6K Signaling” value [5] was -1.342 and the “activation Z-score: Renin-Angiotensin Signaling” value [5] was -2.449. The “activation Z-score: Ribonucleotide Reductase Signaling Pathway” value [5] was -1.291, the “activation Z-score: Role of JAK family kinases in IL-6-type Cytokine Signaling” value [5] was -2.668 and the “activation Z-score: Role of NFAT in Cardiac Hypertrophy” value [5] was -3.162. For the same compound, the “activation Z-score: STAT3 Pathway” value [5] was -1.414, the “activation Z-score: Salvage Pathways of Pyrimidine Ribonucleotides” value [5] was 1.134 and the “activation Z-score: Senescence Pathway” value [5] was -3.3. The “activation Z-score: Signaling by Rho Family GTPases” value [5] was -3.638, the “activation Z-score: TREM1 Signaling” value [5] was -2.646 and the “activation Z-score: Type II Diabetes Mellitus Signaling” value [5] was -1.342. The “activation Z-score: White Adipose Tissue Browning Pathway” value [5] was -2.714, the “activation Z-score: Wound Healing Signaling Pathway” value [5] was -4.964 and the “activation Z-score: iNOS Signaling” value [5] was -2.236.
